Blank lines part the entries; values can stand above or below the compound they belong to.
Assays:
[1] = molecular target: JAK1 (Homo sapiens, UniProt P23458); test: JAK kinase inhibitory activity, HTRF biochemical assay
Procedure: (§1) The compounds of the above embodiments were applied to the detection and screening of JAK kinase inhibitory activity.
(§2) A corresponding volume of DMSO was added to each well of a first 96-well plate. 20-30 μL of 100-200 μM stock solution of different test compounds were added to each well. The mixture was shaken and mixed for 3 min. All of the compounds were subjected to 3× serial dilution. 60-80 μL Kinase buffer was added to each well of a second 96-well plate, and 1-2 μL of the solution taken from each well of the first 96-well plate was added to the corresponding well of the second 96-well plate. The mixture was shaken and mixed for 3 min. 5 μL of compound dilution taken from each well of the second compound dilution plate was transferred to the corresponding well of a 384-well test plate. 1-2 μL TK Substrate-biotin was added to each well of the test plate. 1-2 μL of enzyme mixture was added to each well. At the same time, a blank well without enzyme was set. 1-2 μL of ATP solution was added to each well, the plate was sealed and reacted at room temperature. The reaction time was as follows: JAK1: 2 h, JAK2: 30 min, JAK3: 30 min, and TYK2: 50 min. 3-5 μL of Streptavidin-XL665 and 3-5 μL of TK Antibody-cryptate were added to each well, the plate was sealed and allowed to stand at room temperature for 30 min to complete the reaction.
(§3) The percentage of inhibition was calculated based on the following formula:
(§4) Inhibition %=[(Ratiomax−Ratiocompound)/(Ratiomax−Ratiomin)]×100%
(§5) Ratiocompound is the HTRF ratio at a given compound concentration, Ratiomin is the HTRF ratio added to the blank well, and Ratiomax is the HTRF ratio without adding the compound. GraphPad Prism 5.0 software was used to plot a sigmoid dose-inhibition rate curve with a non-linear regression model and calculate the IC50 value.

[2] = molecular target: JAK2 (Homo sapiens, UniProt O60674); test: as above
JAK2, sequence (O60674 whole entry, species assumed): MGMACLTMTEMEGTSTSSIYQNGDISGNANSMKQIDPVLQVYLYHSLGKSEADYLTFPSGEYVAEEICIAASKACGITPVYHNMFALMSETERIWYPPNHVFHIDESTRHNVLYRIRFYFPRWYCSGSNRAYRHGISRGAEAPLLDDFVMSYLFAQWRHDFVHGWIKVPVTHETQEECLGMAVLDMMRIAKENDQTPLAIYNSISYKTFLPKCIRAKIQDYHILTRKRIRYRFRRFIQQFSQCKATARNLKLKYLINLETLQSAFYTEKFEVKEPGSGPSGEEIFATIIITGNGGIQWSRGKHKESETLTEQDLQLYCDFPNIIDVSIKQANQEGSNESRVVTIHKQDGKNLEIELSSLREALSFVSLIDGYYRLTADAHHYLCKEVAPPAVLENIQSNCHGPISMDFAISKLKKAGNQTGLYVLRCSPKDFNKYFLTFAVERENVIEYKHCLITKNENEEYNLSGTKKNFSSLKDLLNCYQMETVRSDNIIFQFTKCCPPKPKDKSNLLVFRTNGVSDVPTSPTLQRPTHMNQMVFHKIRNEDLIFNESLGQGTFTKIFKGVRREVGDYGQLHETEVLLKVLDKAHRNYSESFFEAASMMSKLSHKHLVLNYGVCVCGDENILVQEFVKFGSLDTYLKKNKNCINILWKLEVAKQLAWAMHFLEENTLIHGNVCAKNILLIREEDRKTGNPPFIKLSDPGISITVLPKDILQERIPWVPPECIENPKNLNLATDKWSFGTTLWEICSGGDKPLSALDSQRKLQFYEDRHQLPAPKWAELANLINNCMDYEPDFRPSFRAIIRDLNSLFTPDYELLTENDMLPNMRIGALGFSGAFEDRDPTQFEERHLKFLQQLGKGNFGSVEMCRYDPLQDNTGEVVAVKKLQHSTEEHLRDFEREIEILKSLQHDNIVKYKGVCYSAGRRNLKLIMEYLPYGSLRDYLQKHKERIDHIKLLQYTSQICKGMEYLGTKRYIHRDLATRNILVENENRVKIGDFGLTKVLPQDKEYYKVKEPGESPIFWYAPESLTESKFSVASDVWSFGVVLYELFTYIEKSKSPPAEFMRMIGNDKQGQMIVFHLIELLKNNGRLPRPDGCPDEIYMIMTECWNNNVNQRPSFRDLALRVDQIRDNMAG
Procedure: as §1, §2, §3, §4, §5

[3] = Body weight of CIA rats; details: 2 mg/kg oral gavage once daily for 2 w
Procedure: (§6) Lewis rats (female, 10-12 weeks old) were obtained from Beijing Vital River Laboratory Animal Technology Co., Ltd. The rats were on a light and dark alternation for 12 h, and the environment was kept at a temperature of 23±2° C. and a humidity of 40-70%.
(§7) Type II collagen solution (2 mg/mL) was prepared with 0.05 M acetic acid solution to allow to be fully dissolved, and placed overnight in the dark at 4° C. During the test, 2 mg/mL type II collagen (C II) solution and 4 mg/mL complete Freund's adjuvant (CFA) solution were mixed in equal volumes under ice bath conditions to fully emulsify. On day 0, an emulsion prepared by mixing equal volumes of C II (2 mg/mL) and CFA (4 mg/mL) was injected intracutaneously into the base of the tail of experimental rats for primary immunization, and on day 7, secondary booster immunization was performed.
(§8) The therapeutic effect of the test compound was tested in a rat CIA model. The rats were randomly divided into groups with 8 animals in each group. All animals were immunized on day 0 and boosted on day 7.
Therefore, the differences in body weight and foot volume after the onset of arthritis compared with the negative group, respectively, can be used to evaluate the therapeutic effect in the rat model. The experimental data were expressed as Mean±SEM; the data between the two groups was tested by unpaired t-test and p<0.05 was considered as a significant difference.

[4] = test system: rat CIA model; test: Arthritis index (AI) of extremities in rat CIA model; details: CIA rats, 2 mg/kg oral gavage once daily for 2 w, score 0-16;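 also: rats immunized with type II collagen plus complete Freund's adjuvant on day 0, boosted day 7, groups of 8, each paw graded 0-4 for swelling or redness, higher means worse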
Procedure: as §6, §7, §8
Foot volume was scored for the swelling of four toes at the same time, the score for each foot was 0-4, and the highest score for each rat was 16. 0—no swelling, normal appearance; 1—mild swelling or redness of the ankle joint, wrist joint or finger joint; 2—moderate swelling or redness of the ankle joint, wrist joint or finger joint; 3—severe swelling or redness of the ankle joint, wrist joint or finger joint; 4—very severe swelling or redness of the ankle joint, wrist joint or finger joint.

[5] = test system: rat CIA model; test: Hindfoot foot volume in rat CIA model; assay type: in vivo, Lewis rats; details: CIA rats, hindfoot, 2 mg/kg oral gavage once daily for 2 w

JAK1, sequence (P23458 whole entry, species assumed): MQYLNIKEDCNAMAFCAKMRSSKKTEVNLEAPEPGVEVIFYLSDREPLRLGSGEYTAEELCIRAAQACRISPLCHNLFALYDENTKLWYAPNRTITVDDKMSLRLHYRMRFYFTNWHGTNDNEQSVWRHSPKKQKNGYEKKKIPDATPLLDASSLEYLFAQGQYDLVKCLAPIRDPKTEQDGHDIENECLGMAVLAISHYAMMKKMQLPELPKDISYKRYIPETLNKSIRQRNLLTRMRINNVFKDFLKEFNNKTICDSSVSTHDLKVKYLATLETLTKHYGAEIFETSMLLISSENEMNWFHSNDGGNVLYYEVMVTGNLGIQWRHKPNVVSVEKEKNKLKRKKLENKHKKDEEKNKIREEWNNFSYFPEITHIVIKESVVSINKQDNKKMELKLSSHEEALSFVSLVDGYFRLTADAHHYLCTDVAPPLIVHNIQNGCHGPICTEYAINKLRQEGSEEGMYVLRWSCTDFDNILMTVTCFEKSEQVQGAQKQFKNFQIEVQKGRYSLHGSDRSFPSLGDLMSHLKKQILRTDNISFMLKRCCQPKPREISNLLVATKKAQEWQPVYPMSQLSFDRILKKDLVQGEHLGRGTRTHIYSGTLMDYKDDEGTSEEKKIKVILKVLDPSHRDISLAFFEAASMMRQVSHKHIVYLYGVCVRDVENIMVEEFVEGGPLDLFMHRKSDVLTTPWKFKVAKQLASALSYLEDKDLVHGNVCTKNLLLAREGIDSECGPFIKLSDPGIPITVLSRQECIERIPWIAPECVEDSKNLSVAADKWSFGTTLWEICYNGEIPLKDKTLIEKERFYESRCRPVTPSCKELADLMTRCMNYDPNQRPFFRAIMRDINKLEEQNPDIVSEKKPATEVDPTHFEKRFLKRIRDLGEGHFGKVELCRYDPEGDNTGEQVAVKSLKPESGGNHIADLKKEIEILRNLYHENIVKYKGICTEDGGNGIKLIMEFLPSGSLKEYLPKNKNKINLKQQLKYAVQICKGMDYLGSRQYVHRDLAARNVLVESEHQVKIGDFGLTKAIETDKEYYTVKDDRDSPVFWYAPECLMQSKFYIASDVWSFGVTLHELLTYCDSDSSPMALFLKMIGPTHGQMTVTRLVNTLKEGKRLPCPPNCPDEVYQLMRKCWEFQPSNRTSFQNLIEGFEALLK

IC50 [1]: 50 to 500 nM
SMILES: O=C(Nc1nc2cccc(-c3ccc(CN4CCC(F)(F)CC4)s3)n2n1)[C@H]1C[C@@H]1F (relative stereo) [EXP-12, trans-N-[5-[5-[(4,4-difluoro-1-piperidinyl)methyl]-2-thienyl]-[1,2,4]triazolo[1,5-a]pyridin-2-yl]-2-fluorocyclopropanecarboxamide]

IC50 [1]: > 500 nM
SMILES: O=C(Nc1nc2cccc(-c3ccc(CN4CCC(OC(F)(F)F)CC4)s3)n2n1)[C@H]1C[C@@H]1F (relative stereo) [EXP-19]

IC50 [2]: > 500 nM
IC50 [1]: > 500 nM
SMILES: CC1(C(=O)Nc2nc3cccc(-c4ccc(CN5CCS(=O)(=O)CC5)s4)n3n2)CC1(F)F (stereo not shown) [EXP-7]

IC50 [2]: > 500 nM
IC50 [1]: > 500 nM
SMILES: O=C(Nc1nc2cccc(-c3ccc(CN4CCS(=O)(=O)CC4)s3)n2n1)[C@H]1C[C@H]1C(F)(F)F [EXP-8]

IC50 [2]: 50 to 500 nM
IC50 [1]: 50 to 500 nM
SMILES: O=C(Nc1nc2cccc(-c3ccc(CN4CCS(=O)(=O)CC4)s3)n2n1)[C@@H]1C[C@H]1C(F)(F)F [EXP-9]

IC50 [1]: > 500 nM
SMILES: O=C(Nc1nc2cccc(-c3ccc(CN4CCS(=O)(=O)CC4)s3)n2n1)C1(F)CC1 [EXP-10]

IC50 [2]: 50 to 500 nM
IC50 [1]: 50 to 500 nM
SMILES: O=C(Nc1nc2cccc(-c3ccc(CN4CCC(C(F)(F)F)CC4)s3)n2n1)[C@H]1C[C@@H]1F [EXP-11]

IC50 [2]: 30 to 50 nM
IC50 [1]: 30 to 50 nM
SMILES: Cc1cc(-c2cccc3nc(NC(=O)C4CC4)nn23)sc1CN1CCC(F)(F)CC1 [EXP-13]

IC50 [2]: > 500 nM
IC50 [1]: > 500 nM
SMILES: O=C(Nc1nc2cccc(-c3nnc(CN4CCS(=O)(=O)CC4)s3)n2n1)C1CC1 [EXP-14, N-[5-[5-[(1,1-dioxo-1,4-thiazin-4-)methyl]-1,3,4-thiadiazol-2-]-[1,2,4]triazolo[1,5-a]pyridine-2-]cyclopropylcarboxamide]

IC50 [1]: > 500 nM
SMILES: O=C(Nc1nc2cccc(-c3nnc(CN4CCS(=O)(=O)CC4)o3)n2n1)C1CC1 [EXP-15, N-[5-[5-[(1,1-dioxo-1,4-thiazin-4-)methyl]-1,3,4-oxadiazole-2-]-[1,2,4]triazolo[1,5-a]pyridine-2-]cyclopropylcarboxamide]

IC50 [1]: > 500 nM
SMILES: O=C(Nc1nc2cccc(-c3ccc(COCCc4cn[nH]c4)s3)n2n1)C1CC1 [EXP-16, N-[5-[5-[2-(1H-pyrazol-4-yl)-ethoxymethyl]-2-thienyl]-[1,2,4]triazolo[1,5-a]pyridin-2-yl]cylopropanecarboxamide]

IC50 [1]: > 500 nM
SMILES: O=C(NCCc1nccs1)c1ccc(-c2cccc3nc(NC(=O)C4CC4)nn23)s1 [EXP-17, 5-[2-[2-thiazole-2-ethyl]carboxamido]-thiophene-[1,2,4]triazolo[1,5-a]pyridine-2-cyclopropanecarboxamide]

IC50 [2]: 50 to 500 nM
IC50 [1]: 50 to 500 nM
SMILES: O=C(NCCc1nccs1)c1cc(-c2cccc3nc(NC(=O)C4CC4)nn23)cs1 [EXP-18]

SMILES: CC[C@@H]1CN(C(=O)NCC(F)(F)F)C[C@@H]1c1cnc2cnc3[nH]ccc3n12 [Upadacitinib, upadacitinib, reference compound]
Body weight (g)/Day ([3]; day 0): 172.3 ± 1.8 g
Body weight (g)/Day ([3]; day 8): 170.4 ± 2.1 g
Body weight (g)/Day ([3]; day 11): 169.4 ± 2.8 g
Body weight (g)/Day ([3]; day 14): 170 ± 2.2 g
Body weight (g)/Day ([3]; day 17): 170.8 ± 3.3 g
Body weight (g)/Day ([3]; day 21): 168.6 ± 2.9 g
Body weight (g)/Day ([3]; day 24): 165.9 ± 2.9 g
Body weight (g)/Day ([3]; day 28): 170.5 ± 3.1 g
Arthritis index/Day ([4]; day 0): 0 ± 0
Arthritis index/Day ([4]; day 8): 0 ± 0
Arthritis index/Day ([4]; day 11): 0.63 ± 0.38
Arthritis index/Day ([4]; day 14): 3.50 ± 0.73
Arthritis index/Day ([4]; day 17): 5.50 ± 1.00
Arthritis index/Day ([4]; day 21): 9.00 ± 1.07
Arthritis index/Day ([4]; day 24): 9.38 ± 0.71
Foot volume (ml)/Day ([5]; day 0): 2.611 ± 0.022 mL
Foot volume (ml)/Day ([5]; day 8): 2.599 ± 0.020 mL
Foot volume (ml)/Day ([5]; day 11): 2.738 ± 0.110 mL
Foot volume (ml)/Day ([5]; day 14): 3.675 ± 0.314 mL
Foot volume (ml)/Day ([5]; day 17): 4.126 ± 0.301 mL
Foot volume (ml)/Day ([5]; day 21): 4.591 mL
Foot volume (ml)/Day ([5]; day 24): 4.403 mL
Foot volume (ml)/Day ([5]; day 28): 3.990 mL
